From patent publication US10322132B2, “Prevention or treatment of uratic or gouty diseases” (SHANTON PHARMA CO., LTD., priority 2015, dated 2019)
One block for each molecule: values may come before it.

Key:
[1] = Pharmacokinetics experiment in cynomolgus monkeys, intravenous; format: in vivo, cynomolgus monkeys (Macaca fascicularis); settings: Mean ± SD, n = 3
Procedure: Three non-naïve cynomolgus monkeys were administered with test compounds A, B and D at a dose of 5 mg/kg by intravenous injection and with test compound C at a dose of 3 mg/kg by intravenous injection, with one compound being tested at a time. Blood was collected from the vein before administration and 1 h, 3 h, 6 h and 24 h after administration, and plasma was isolated. The plasma was analyzed by a 4000 Q Trap LC-MS/MS instrument. The concentrations of the test samples were output by Analyst 1.6.1 from AB Company. The parameters ( ) such as the mean, standard deviation, and coefficient of variation were calculated using Microsoft Excel, wherein the values directly output by Analyst 1.6.1 requires no calculation. PK parameters were calculated using Pharsight Phoenix 6.2 software (NCA model).

TNF-α = assay: LPS-induced TNF-α release; format: in vivo, Male BALB/C mice
Procedure: The experiment was conducted by reference to Pascale Gaillard, Isabelle Jeanclaude-Etter, etc. Design and Synthesis of the First Generation of Novel Potent, Selective, and in Vivo Active (Benzothiazol-2-yl)acetonitrile
BALB/C mice were raised in the SPF-grade animal room for 1 week, and were then randomly divided into the corresponding model group and the administration groups according to the body weight. The […] were administered with the solvent or the test samples by subcutaneous injection at a dose of 10 mg/kg. The rats were administered with LPS by intraperitoneal injection at a dose of 15 mg/kg 30 min after the administration of the solvent or the test samples. The mice were anesthetized with sodium pentobarbital (45 mg/kg by intraperitoneal injection) 1 h after LPS administration. The blood was collected by cardiac puncture, and the content of TNF-α (tumor necrosis factor) in plasma was measured with a Mouse TNF-α Elisa Ready-set-go kit.

[2] = test system: MSU-induced gouty arthritis; assay: MSU-induced gouty arthritis, toe volume; format: in vivo, Male Wistar rats; settings: for Change of toe volume: 9 h after MSU injection into left ankle joint cavity; for Inhibition of toe volume change (%) / Toe volume change: 9 h after MSU; for Inhibition of toe volume change (%): vs model group; for effect on increase of the toe volumes in the test rats (in words): compared with the model group
Procedure: The experiment was done by reference to Hsin-Pai Lee, Shi-Ying Huang, Yen-You Lin. Soft Coral-Derived Lemnalol Alleviates Monosodium Urate-Induced Gouty Arthritis in Rats by Inhibiting Leukocyte Infiltration and iNOS, COX-2 and c-Fos Protein Expression. […] 2013, 11, 99-113.
One gram of uric acid was weighed, introduced into 200 mL of boiling water and heated. Then, NaOH (2 mol/L) was added until pH reached 9. The solution became clear, and was cooled at room temperature and then left still overnight. MSU was obtained after filtration, which was dried at 60° C. for 24 h and then sterilized at a high temperature of 180° C.
(§1) The toe volumes of the rats were measured one day prior to the experiment. The rats were administered with the solvent by subcutaneous injection in the model group at a dose of 5 mL/kg, while the rats were administered with test samples by subcutaneous injection in administration groups at a dose of 5 mg/kg. Rats were anesthetized immediately after administration and were injected with 0.09 mL of MSU suspension into the joint cavity of the left ankle. The volume of the left toe was measured in rats 9 h after the injection of MSU into the ankle joint cavity.
as §1, with “dose of 15 mL/kg, while” for “dose of 5 mL/kg, while”, “dose of 15 mg/kg or 10 mg/kg. Rats” for “dose of 5 mg/kg. Rats”
The toe volumes of rats were measured one day prior to the experiment. The rats were administered with the solvent by subcutaneous injection in the model group at a dose of 15 mL/kg, while the rats were administered with the test sample by subcutaneous injection in administration group at a dose of 15 mg/kg. Rats were anesthetized immediately after administration and were injected with 0.09 mL of MSU suspension into the joint cavity of the left ankle. The volume of the left toe in each rat was measured 9 h after the injection of MSU into the ankle joint cavity.

[3] = test system: MSU-induced gouty arthritis; assay: Pain value in rats with gouty arthritis (electronic Von Frey pain threshold detector); format: in vivo, Male Wistar rats; settings: for Pain value: left foot, Von Frey
Procedure: The rats with gouty arthritis were placed in a metabolic cage, and the palm center of the left foot of each rat was irritated with an electronic Von Frey pain threshold detector. The maximum stress value was recorded when each rat withdrew its foot, and the value was the pain value of that rat.

serum uric acid = assay: Uric acid-lowering experiment in cynomolgus monkeys; format: in vivo; design: Reduction rate of serum uric acid: concentration or dose not given beside the values; settings: for effect on serum uric acid levels in the test monkeys (in words): compared to the levels measured before administration; for Reduction rate of serum uric acid / Content of serum uric acid: intravenous
Procedure: The experiment was done by reference to Komoriya K, Osada Y, Hasegawa M, Horiuchi H, Kondo S, Couch R C, Griffin T B. Hypouricemic effect of allopurinol and the novel xanthine oxidase inhibitor TEI-6720 in chimpanzees. Eur J Pharmacol. 1993 Dec. 21; 250(3): 455-60.
Each compound was tested in three non-naïve cynomolgus monkeys (1 #, 2 # and 3 #), wherein the monkeys were administered with test samples by intravenous injection. Blood was collected from the vein before administration and 1 h, 3 h, 6 h and 24 h after administration. The blood was left still at room temperature. The serum was collected by centrifugation. The content of uric acid in serum was measured. Reduction rate of serum uric acid=(average uric acid content before administration−average uric acid content after administration)/average uric acid content before administration*100%.

IFNγ = assay: ConA-induced IFNγ release; format: in vivo, Male C57BL/6 mice
Procedure: The experiment was conducted by reference to Dalya R. Soondl, Elisa Bjørgo, etc. PI3K p110δ regulates T cell cytokine production during primary and secondary immune responses in mice and humans. Blood. Author manuscript; available in PMC 2013 Mar. 11; and Gabriele Sass, Sonja Heinlein, etc. CYTOKINE EXPRESSION IN THREE MOUSE MODELS OF EXPERIMENTAL HEPATITIS. CYTOKINE, Vol. 19, No. 3 (7 Aug.), 2002: pp 115-120.
The C57BL/6 mice were raised in the SPF-grade animal room for 1 week, and were then randomly divided into the corresponding model group and the administration groups according to the body weight. The […] were administered with ConA by the tail vein injection at a dose of 15 mg/kg 30 min after the administration of the solvent or the test samples by subcutaneous injection at a dose of 20 mg/kg. After the mice were anesthetized with sodium pentobarbital (45 mg/kg by intraperitoneal injection) 3 h after administration of ConA, the blood was collected by cardiac puncture. The blood was placed in the centrifuge tube without anticoagulant and left still at room temperature. One hour later, the blood was centrifuged. The serum was extracted and stored at −80° C. The content of IFNγ (γ-interferon) in the serum was detected by a Mouse IFNγ Elisa

[4] = target: T1, human urate transporter 1 (hURAT1) (Homo sapiens, UniProt Q96S37); assay: Uptake of 14C-labeled uric acid in hURAT1 transfected cells; format: cell-based; settings: 14C uric acid uptake, hURAT1-transfected HEK-293T cells, 5 min at 37° C.; read-out: IC50 (μM), inhibition of hURAT1 activity
T1 construct: expressed in transfected cells; host or cells: HEK-293T
T1 sequence (Q96S37 1-553): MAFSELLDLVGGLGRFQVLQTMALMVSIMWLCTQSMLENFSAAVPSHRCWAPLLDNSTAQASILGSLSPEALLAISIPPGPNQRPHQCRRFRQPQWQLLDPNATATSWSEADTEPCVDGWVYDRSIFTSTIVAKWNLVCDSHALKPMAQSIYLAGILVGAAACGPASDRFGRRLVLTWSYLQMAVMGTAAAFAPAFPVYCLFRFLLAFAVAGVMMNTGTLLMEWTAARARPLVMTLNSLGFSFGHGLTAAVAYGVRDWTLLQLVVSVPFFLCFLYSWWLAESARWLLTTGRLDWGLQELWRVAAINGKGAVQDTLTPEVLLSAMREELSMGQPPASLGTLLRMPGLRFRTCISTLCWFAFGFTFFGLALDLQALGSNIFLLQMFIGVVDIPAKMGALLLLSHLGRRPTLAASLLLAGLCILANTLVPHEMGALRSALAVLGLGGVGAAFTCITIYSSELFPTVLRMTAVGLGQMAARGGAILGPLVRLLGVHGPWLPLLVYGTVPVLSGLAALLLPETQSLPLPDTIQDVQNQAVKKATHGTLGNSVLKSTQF

[5] = Example 4, 5 mg/kg subcutaneous
[6] = Example 5, 10 mg/kg subcutaneous
[7] = Example 6, 15 mg/kg subcutaneous

t1/2z ([1]; 3 mg/kg): 41.49 ± 12.31 h
Structure (SMILES): CCCCn1c(=O)n(C)c(=O)c2[nH]c(Cl)nc21 [Compound C, 8-chloro-1-methyl-3-butyl-3,7-dihydro-1H-purine-2,6-dione]
inhibition (%) (TNF-α; TNF-α in plasma vs model group, 10 mg/kg subcutaneous): 24.4%
effect on content of TNF-α in the plasma of the test mice (in words) (TNF-α; compared with the model group): significantly reduce
Content of TNF-α (TNF-α; plasma, 10 mg/kg subcutaneous 30 min before LPS 15 mg/kg i.p., 1 h after LPS): 1208 pg/mL
Change of toe volume [2, 5]: 0.451 mL
Inhibition of toe volume change (%) [2, 5]: 10.5%
effect on increase of the toe volumes in the test rats (in words) ([2]; Example 4, 5 mg/kg): significantly inhibit
Toe volume change [2, 6]: 0.261 mL
Inhibition of toe volume change (%) [2, 6]: 35.4%
effect on increase of the toe volumes in the test rats (in words) ([2]; Example 5, 15 mg/kg or 10 mg/kg): significantly inhibit
Pain value [3, 6]: 43.46 g
effect on pain values in the test rats (in words) ([3]; Example 5, compared with the model group): significantly increase
effect on serum uric acid levels in the test monkeys (in words) (serum uric acid): significantly reduce
Reduction rate of serum uric acid (serum uric acid; 24 h after administration vs before administration, animal 1#): 20.3%
Reduction rate of serum uric acid (serum uric acid; 24 h after administration vs before administration, animal 2#): 41.0%
Reduction rate of serum uric acid (serum uric acid; 24 h after administration vs before administration, animal 3#): 13.9%
Reduction rate of serum uric acid (serum uric acid; 24 h after administration vs before administration, mean): 25.7%
Content of serum uric acid (serum uric acid; 24 h after administration, animal 1#): 45.8 µmol/L
Content of serum uric acid (serum uric acid; 24 h after administration, animal 2#): 38.3 µmol/L
Content of serum uric acid (serum uric acid; 24 h after administration, animal 3#): 50.7 µmol/L
Content of serum uric acid (serum uric acid; 24 h after administration, mean): 44.9 µmol/L
inhibition (%) (IFNγ; IFN-γ in serum vs model group, 20 mg/kg subcutaneous): 19.4%
effect on content of IFNγ in the serum of the test mice (in words) (IFNγ; compared with the model group): significantly reduce
Content of IFN-γ (IFNγ; serum, 20 mg/kg subcutaneous 30 min before ConA 15 mg/kg tail vein, 3 h after ConA): 2644 pg/mL

Structure (SMILES): CCCCn1c(=O)[nH]c(=O)c2[nH]c(Cl)nc21 [Compound B, 8-chloro-3-butyl-3,7-dihydro-1H-purine-2,6-dione]
t1/2z ([1]; 5 mg/kg): 2.72 ± 0.35 h
Change of toe volume [2, 5]: 0.349 mL
Inhibition of toe volume change (%) [2, 5]: 30.8%
effect on increase of the toe volumes in the test rats (in words) ([2]; Example 4, 5 mg/kg): significantly inhibit
Toe volume change [2, 7]: 0.229 mL
Inhibition of toe volume change (%) [2, 7]: 49.1%
effect on increase of the toe volumes in the test rats (in words) ([2]; Example 6, 15 mg/kg): significantly inhibit
IC50 [4]: 3.02 µM
Pain value [3, 7]: 37.2 g
effect on pain in the test rats (in words) ([3]; Example 6, compared with the model group): significantly reduce
effect on serum uric acid levels in the test monkeys (in words) (serum uric acid): significantly reduce
Reduction rate of serum uric acid (serum uric acid; 3 h after administration vs before administration, animal 1#): 17.5%
Reduction rate of serum uric acid (serum uric acid; 3 h after administration vs before administration, animal 2#): 9.2%
Reduction rate of serum uric acid (serum uric acid; 3 h after administration vs before administration, mean): 14.1%
Content of serum uric acid (serum uric acid; 3 h after administration, animal 1#): 69.1 µmol/L
Content of serum uric acid (serum uric acid; 3 h after administration, animal 2#): 52.3 µmol/L
Content of serum uric acid (serum uric acid; 3 h after administration, mean): 60.7 µmol/L
